This note sets out measurements from patent publication US20060153936A1, “Flavonoid solubilizing agent and method of solubilizing flavonoid” (priority 2003, published 2006).

Structures are written as SMILES. Read-outs that look alike come from different tables or passages of the source.

Data set [1] is described as follows: Hesperidin dissolution amount with solubilizing agent (Example 3). In kind it is physicochemical. Particulars: without additive; hesperidin 100 mg in ultrapure water 10 mL; 80° C. one hour, equilibrated 10° C. 48 hours. The protocol:
Then, after it was equilibrated at 10° C. for 48 hours, the supernatant was collected by centrifugation. The OD254 of the supernatant was measured and a hesperidin dissolution amount was calculated by the following equation 3. hesperidin dissolution amount (mg/100 mL)=(OD254 in sample supernatant−OD254 in control supernatant)/hesperidin specific absorbance×1000

Data set [2] is described as follows: Storage stability of hesperidin supernatant at 10° C., visual examination (Example 3). Particulars: hesperidin supernatant without additive, 95° C. 15 minutes, stored 10° C. one month. Format: physicochemical. The procedure:
(§1) Further, the supernatant was placed in a test tube, and after it was pasteurized by heating at 95° C. for 15 minutes, it was stored at 10° C. for one month to observe the formation of a precipitate by visual examination.

Data set [3] is described as follows: Isoflavone dissolution amount by HPLC with malonyl daidzin (Example 6). Conditions: for dissolution amount of malonyl daidzin itself: share of malonyl daidzin in the isoflavone amount of the supernatant, 10° C. Format: physicochemical. The protocol:
(§2) Ultrapure water 1 mL was added to a commercially available soybean isoflavone (trade name “Honen Isoflavone-80”, manufactured by Honen Corporation) 12.5 mg (10 mg of isoflavone glycoside) and a commercially available malonyl isoflavone glycoside, malonyl daidzin (purity: 90% or more, manufactured by Wako Pure Chemicals, Co., Ltd.) 1 mg, and the mixture was stirred at 25° C. for one hour. Then, after it was equilibrated at 10° C. for 48 hours, the supernatant was collected by centrifugation and an isoflavone dissolution amount was measured by HPLC. Further, the supernatant was placed in a test tube, it was stored as such at 10° C. for one month to observe the formation of a precipitate by visual examination.

Data set [4] is classed as physicochemical. The protocol:
as §2

Data set [5] can be described thus: Naringin dissolution amount with solubilizing agent (Example 4). Format: physicochemical. Conditions: without additive; naringin 100 mg in ultrapure water 10 mL; 80° C. one hour, equilibrated 10° C. 48 hours. The procedure:
Ultrapure water 10 mL was added to commercially available naringin (flavanones, purity: 95% or more, manufactured by Sigma Inc.) 100 mg and the same solubilizing agent as that used in Example 1, and the mixture was stirred at 80° C. for one hour. Then, after it was equilibrated at 10° C. for 48 hours, the supernatant was collected by centrifugation. The OD254 in the supernatant was measured and a naringin dissolution amount was calculated by the following equation 4. naringin dissolution amount (mg/100 mL)=(OD254 in sample supernatant−OD254 in control supernatant)/naringin specific absorbance×1000

A short description of data set [6]: Storage stability of naringin supernatant at 10° C., visual examination (Example 4). In kind it is physicochemical. Particulars: naringin supernatant without additive, 95° C. 15 minutes, stored 10° C. one month. The procedure:
as §1

Data set [7] can be described thus: Storage stability of rutin supernatant at 10° C., visual examination (Example 2). Conditions: rutin supernatant without additive, 95° C. 15 minutes, stored 10° C. one month. Format: physicochemical. The protocol: Further, the supernatant was placed in a test tube, after it was pasteurized by heating at 95° C. for 15 minutes, it was stored at 10° C. for one month to observe the formation of a precipitate by visual examination.

A short description of data set [8]: Baicalin dissolution amount with solubilizing agent (Example 1). In kind it is physicochemical. Particulars: without additive; baicalin 100 mg in ultrapure water 10 mL; 80° C. one hour, equilibrated 10° C. 48 hours. The protocol: Then, after the mixture was equilibrated at 10° C. for 48 hours, the supernatant was collected by centrifugation. The OD254 of the supernatant was measured and the dissolution amount of baicalin was calculated by the following equation 1. baicalin dissolution amount (mg/100 mL)=(OD254 in sample supernatant−OD254 in control supernatant)/baicalin specific absorbance×1000

Data set [9] can be described thus: Storage stability of baicalin supernatant at 10° C., visual examination (Example 1). Format: physicochemical. Conditions: baicalin supernatant without additive, 95° C. 15 minutes, stored 10° C. one month. The protocol:
Further, the supernatant was placed in a test tube and, after it was pasteurized by heating at 95° C. for 15 minutes, it was stored at 10° C. for one month to observe the formation of a precipitate by visual examination.

`COc1ccc([C@@H]2CC(=O)c3c(O)cc(O[C@@H]4O[C@H](CO[C@@H]5O[C@@H](C)[C@H](O)[C@@H](O)[C@H]5O)[C@@H](O)[C@H](O)[C@H]4O)cc3O2)cc1O` [Hesperidin, hesperidin] registered a Hesperidin dissolution amount in [1] of 8.6 mg/100 mL. In addition, in [2], the “Storage stability (10° C.)” value is given as “precipitate”.

Regarding `O=C(O)CC(=O)OC[C@H]1O[C@@H](Oc2ccc3c(=O)c(-c4ccc(O)cc4)coc3c2)[C@H](O)[C@@H](O)[C@@H]1O` [Malonyl daidzin, malonyl daidzin], the Isoflavone amount in data set [3] (Honen Isoflavone-80 12.5 mg + malonyl daidzin 1 mg in ultrapure water 1 mL, 25° C. one hour, equilibrated 10° C. 48 hours, HPLC, total including malonyl daidzin) is 106.3 mg/100 mL. Moreover, in data set [3] (in the co-presence of malonyl daidzin, malonyl daidzin's own amount deducted), the “solubilizing magnifying power of the isoflavone glycoside” value was 2.9 fold. Besides, the “dissolution amount of malonyl daidzin itself” value in [3] (HPLC) is given as “(including 56.9 of mg/100 mL”; in data set [3] (HPLC, listed as malonyl daidzin), 56.9 mg/100 mL. For the same compound, the “Storage stability (10° C.)” value in data set [4] is “No precipitate”.

Take `C[C@@H]1O[C@@H](O[C@H]2[C@H](Oc3cc(O)c4c(c3)O[C@H](c3ccc(O)cc3)CC4=O)O[C@H](CO)[C@@H](O)[C@@H]2O)[C@H](O)[C@H](O)[C@H]1O` [Naringin, naringin]: the Naringin dissolution amount in data set [5] was 68.0 mg/100 mL. The “Storage stability (10° C.)” value in [6] is listed as “precipitate”.

Regarding `C[C@@H]1O[C@@H](OC[C@H]2O[C@@H](Oc3c(-c4ccc(O)c(O)c4)oc4cc(O)cc(O)c4c3=O)[C@H](O)[C@@H](O)[C@@H]2O)[C@H](O)[C@H](O)[C@H]1O` [Rutin, rutin], the “Storage stability (10° C.)” value in data set [7] was “precipitate”.

With `O=C(O)[C@H]1O[C@@H](Oc2cc3oc(-c4ccccc4)cc(=O)c3c(O)c2O)[C@H](O)[C@@H](O)[C@@H]1O` [Baicalin, baicalin], the Baicalin dissolution amount in data set [8] amounted to 12.4 mg/100 mL. The “Storage stability (10° C.)” value in data set [9] is on record as “precipitate”.
